Experiments:
[1] = tested on: THP-1 cells; test: Annexin V-FITC and PI staining, flow cytometry: apoptosis of THP-1 cells; format: cell-based, human
Description: (§1) Lymphocytes, monocytes and THP-1 cells (10^6 per test) were collected after incubation with LcrS, 3.125-25 μg mL^−1, for various times. After washing twice with PBS, the cells were resuspended in Annexin V binding buffer (10 mM HEPES-NaOH (pH 7.4), 140 mM NaCl, and 2.5 mM CaCl2). After centrifugation, the cells were incubated in 500 μl of the same buffer containing 1.25 it FITC-conjugated Annexin V (BD PharMingen, San Diego, Calif., USA) at room temperature for 15 min in the dark. Data acquisition and analysis were performed by the Becton-Dickinson FACSan flow cytometer (Franklin Lakes, N.J., USA) using CellQuest software (Becton-Dickinson, Oxford, UK). […]
as §1, with “500 W” for “500 μl”, “1.25 μl” for “1.25 it”
as §1, with “1.25 μl” for “1.25 it”
The TGF-β regulates a wide variety of biological functions including apoptosis. The TGF-β production was increasing in the LcrS5-30 treated THP-1 cells. It was reasonable to postulate that apoptosis might be triggered by TGF-β rather than the LcrS5-30. To confirm this assumption, a pharmacological inhibitor, SB431542, would be applied. The percentages of apoptotic cells in 10 ng mL^−1 and 1 ng mL^−1 TGF-β exposed preparations were 18.9±0.44% and 16.57±0.67%, respectively (FIG. 8B). Treatment with 12.5 μg mL^−1 or 25 μg mL^−1 of the LcrS5-30 induced dissimilar level of apoptosis of THP-1 cells that were 26.35±0.77% and 74.96±0.38%, respectively.

[2] = tested on: human peripheral blood T cells; conditions: 18 h culture, 5 μg mL^−1; cited from earlier work

NC(=O)c1ccc(-c2nc(-c3ccc4c(c3)OCO4)c(-c3ccccn3)[nH]2)cc1 [SB-431542]
blocking of TGF-β1-induced apoptosis ([1]; 1 μg mL^−1 inhibitor, 24 h): significantly blocked
blocking of apoptosis ([1]; 1 μg mL^−1 inhibitor, 24 h): significantly blocked

TGF-β: anti-inflammatory cytokine applied to THP-1 cells at 1 and 10 ng mL^−1
percentage of apoptotic cells ([1]; 1 ng mL^−1, 24 h): 16.57±0.67%
percentage of apoptotic cells ([1]; 10 ng mL^−1, 24 h): 18.9±0.44%
induced apoptosis in the presence of TGF-β inhibitor SB431542 ([1]; One ng mL^−1, 1 μg mL^−1 SB431542, 24 h): SB431542 sensitive

infliximab
killing activity (as much as) [2]: ≤ 50.6%

Source: patent US20110034371A1, “L. CASEI RHAMNOSUS SECRETED FACTORS AND USE THEREOF” (priority 2009, published 2011)
